This is an account of results in patent publication US6011039A, “Aminopyridine derivatives” (Banyu Pharmaceutical Co., Ltd., priority 1996, dated 2000).

Assay [1] has as its target T1, NPY Y1 receptor (Homo sapiens, UniProt P25929).
T1 construct: A membrane sample prepared from SK-N-MC cells derived from human neuroblastoma; endogenous in cells; host or cells: SK-N-MC
T1 sequence (P25929 1-384): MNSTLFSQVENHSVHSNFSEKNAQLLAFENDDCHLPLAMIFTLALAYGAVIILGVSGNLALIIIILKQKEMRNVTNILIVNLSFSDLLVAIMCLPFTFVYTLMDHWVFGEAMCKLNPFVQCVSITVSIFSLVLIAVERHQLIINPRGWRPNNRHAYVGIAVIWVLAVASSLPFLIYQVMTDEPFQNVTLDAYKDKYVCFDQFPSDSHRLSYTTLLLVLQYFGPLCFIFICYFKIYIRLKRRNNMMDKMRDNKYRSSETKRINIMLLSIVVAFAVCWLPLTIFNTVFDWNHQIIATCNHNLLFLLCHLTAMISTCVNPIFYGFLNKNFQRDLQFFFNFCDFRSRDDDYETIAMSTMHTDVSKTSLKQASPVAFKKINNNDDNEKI
In words: NPY Binding Inhibition Test ([125I] peptide YY binding to SK-N-MC cell membranes). The conditions noted are these: SK-N-MC membrane, 25° C., 2 hours, pH 7.4, 20,000 cpm [125I] peptide YY; read-out: IC50 (50% inhibition concentration against specific [125I] peptide YY binding). How it is done:
Pharmacological Test Example 1
(NPY Binding Inhibition Test)
A membrane sample prepared from SK-N-MC cells derived from human neuroblastoma in which the expression of NPY Y1 receptor was reported, was incubated at 25° C. for 2 hours together with a test compound and 20,000 cpm of [^125 I] peptide YY (manufactured by Amersham Company) in an assay buffer (25 mM HEPES buffer solution containing 10 mM of magnesium chloride, 1 mM of phenylmethylsulfonyl fluoride, 0.1% of bacitracin and 0.5% of BSA, pH 7.4), and then subjected to filtration by a glass filter GF/C. After washing with a 50 mM Tris buffer solution containing 0.3% of BSA at pH 7.4, the radiation activity on the glass filter was measured by a gamma counter. The nonspecific binding was measured in the presence of 1 μM of peptide YY and the 50% inhibition concentration (IC50) of the test compound against specific [^125 I] peptide YY binding was obtained [Endocrinology, vol. 131, 2090 (1992)].

The subject of assay [2] is NPY-induced feeding behavior. In words: Antagonistic Test Against NPY-Induced Feeding Behavior In Vivo. The arrangement: species or system male SD rat. The conditions noted are these: 200 μg/head, into lateral ventricle, simultaneously with NPY (5 μg/head/10 μl); food intake for two hours; Duncan's test, p<0.05 significant. How it is done: Pharmacological Test Example 2
(Antagonistic Test Against NPY-Induced Feeding Behavior In Vivo)
Under pentobarbital anesthesia (intraperitoneal single administration of 200 mg/kg), a chronic guide cannula (outer diameter: 0.8 mm, inner diameter: 0.5 mm, length: 10 mm) was inserted stereotaxically in the right lateral cerebral ventricle of a male SD rat (7 to 8 weeks old, 200 to 300 g) and fixed by a dental resin. The forward end position of the guide cannula was at 0.9 mm posterior to bregma, 1.2 mm to the right of the midline and 1.5 mm ventral to the brain surface, so that when an inner needle was inserted, the forward end extended beyond the forward end of the guide cannula by about 2 mm and reached the lateral ventricle. After a recovery period of about one week, NPY (5 μg/head/10 μl) was administered into the lateral ventricle. The test compound was simultaneously administered as mixed with NPY, and food intake for two hours after the administration was measured. With respect to the obtained result, a multiple comparative determination was carried out by Duncan's test, whereby p<0.05 was taken as significant.

In the case of `C=CCOC(=O)Nc1cccc(CNc2cc(N3CCOCC3)cc(CSc3nnc(CC)s3)n2)c1` [Example 4, 6-(5-ethyl-1,3,4-thiadiazol-2-ylthiomethyl)-4-morpholino-2-[3-(2-propenyloxycarbonylamino)benzylamino]pyridine], in assay [1], the IC50 was 0.33 nM. In addition, the “increase in food intake induced by NPY” value in assay [2] is recorded as “significantly suppressed the increase in food intake induced by NPY”.
